The source made the active and inactive calls.
How the values were obtained:
[1] = target: Cytochrome P450 3A4 (Homo sapiens, UniProt P08684);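 further: CYP3A4 tested as one member of a cytochrome P450 panel screen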
[2] = target: Cytochrome P450 2C9 (Homo sapiens, UniProt P11712)
[3] = target: Cytochrome P450 2C19 (Homo sapiens, UniProt P33261); test: Cytochrome panel assay with activity outcomes. Panel member name: p450-cyp2c19 Compounds with AC50 equal or less than 10 uM are considered active; format: functional; settings: read-out: AC50
[4] = target: T1, Corticotropin-releasing factor receptor 2/Corticotropin-releasing factor-binding protein (Homo sapiens, UniProt P24387+Q13324); test: activators of CRF receptor 2 with binding protein – uHTS hits, confirmation (AID 602473); format: functional; settings: read-out: EC50_Mean
T1 sequence (Q13324 whole entry): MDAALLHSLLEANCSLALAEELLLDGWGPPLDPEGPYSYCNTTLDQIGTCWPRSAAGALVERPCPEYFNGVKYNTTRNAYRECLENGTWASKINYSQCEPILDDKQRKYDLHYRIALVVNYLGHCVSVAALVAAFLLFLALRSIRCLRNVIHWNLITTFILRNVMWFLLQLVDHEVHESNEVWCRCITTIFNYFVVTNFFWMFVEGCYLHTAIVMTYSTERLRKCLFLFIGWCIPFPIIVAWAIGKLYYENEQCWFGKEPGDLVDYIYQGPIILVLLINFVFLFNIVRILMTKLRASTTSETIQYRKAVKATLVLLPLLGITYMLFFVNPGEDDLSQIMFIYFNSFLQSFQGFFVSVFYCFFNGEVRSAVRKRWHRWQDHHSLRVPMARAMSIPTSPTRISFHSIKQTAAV
T1 sequence (P24387 whole entry): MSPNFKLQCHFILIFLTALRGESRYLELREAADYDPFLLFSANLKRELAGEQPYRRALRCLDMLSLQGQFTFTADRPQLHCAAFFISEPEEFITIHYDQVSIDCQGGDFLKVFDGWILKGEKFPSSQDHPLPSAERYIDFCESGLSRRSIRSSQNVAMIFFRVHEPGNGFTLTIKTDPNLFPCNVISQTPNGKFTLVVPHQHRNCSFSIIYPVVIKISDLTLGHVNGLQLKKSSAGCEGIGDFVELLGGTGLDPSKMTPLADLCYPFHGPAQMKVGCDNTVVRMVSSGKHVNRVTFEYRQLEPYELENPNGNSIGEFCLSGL

[5] = target: T1, Corticotropin-releasing factor receptor 2/Corticotropin-releasing factor-binding protein; test: Dose Response confirmation of uHTS hits for small molecule antagonists of the CRF-binding protein and CRF-R2 receptor complex.; format: functional; settings: read-out: IC50_Mean
[6] = target: T2, Rac GTPase-activating protein 1 (Homo sapiens, UniProt Q9H0H5); test: blockers of MgcRacGAP-driven Rac1 GTP hydrolysis – biochemical, ADP Hunter fluorescence, primary and confirmatory, confirmation (AID 624330); format: functional
T2 sequence (Q9H0H5 whole entry): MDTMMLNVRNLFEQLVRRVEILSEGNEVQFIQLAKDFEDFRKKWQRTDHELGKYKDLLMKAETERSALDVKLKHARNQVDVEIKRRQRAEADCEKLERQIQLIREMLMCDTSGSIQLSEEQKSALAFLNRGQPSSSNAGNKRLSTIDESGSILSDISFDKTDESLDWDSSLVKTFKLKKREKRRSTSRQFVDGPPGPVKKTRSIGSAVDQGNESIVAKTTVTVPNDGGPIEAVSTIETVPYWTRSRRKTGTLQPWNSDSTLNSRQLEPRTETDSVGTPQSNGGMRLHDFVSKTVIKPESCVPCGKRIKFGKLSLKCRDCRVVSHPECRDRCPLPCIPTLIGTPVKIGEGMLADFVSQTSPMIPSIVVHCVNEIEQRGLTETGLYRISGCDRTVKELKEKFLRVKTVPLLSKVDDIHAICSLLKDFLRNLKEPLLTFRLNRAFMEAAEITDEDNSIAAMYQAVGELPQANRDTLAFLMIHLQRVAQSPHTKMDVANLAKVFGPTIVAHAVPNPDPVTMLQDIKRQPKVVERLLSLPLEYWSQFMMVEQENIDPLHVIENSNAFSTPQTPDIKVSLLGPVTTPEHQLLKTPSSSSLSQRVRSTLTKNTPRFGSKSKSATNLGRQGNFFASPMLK

[7] = target: T3, Replicative DNA helicase DnaB (Mycobacterium tuberculosis, UniProt P9WMR3); test: DnaB intein splicing inhibitors, dose response, biochemical, cell-free fluorescence (AID 449749); format: functional
T3 sequence (P9WMR3 whole entry): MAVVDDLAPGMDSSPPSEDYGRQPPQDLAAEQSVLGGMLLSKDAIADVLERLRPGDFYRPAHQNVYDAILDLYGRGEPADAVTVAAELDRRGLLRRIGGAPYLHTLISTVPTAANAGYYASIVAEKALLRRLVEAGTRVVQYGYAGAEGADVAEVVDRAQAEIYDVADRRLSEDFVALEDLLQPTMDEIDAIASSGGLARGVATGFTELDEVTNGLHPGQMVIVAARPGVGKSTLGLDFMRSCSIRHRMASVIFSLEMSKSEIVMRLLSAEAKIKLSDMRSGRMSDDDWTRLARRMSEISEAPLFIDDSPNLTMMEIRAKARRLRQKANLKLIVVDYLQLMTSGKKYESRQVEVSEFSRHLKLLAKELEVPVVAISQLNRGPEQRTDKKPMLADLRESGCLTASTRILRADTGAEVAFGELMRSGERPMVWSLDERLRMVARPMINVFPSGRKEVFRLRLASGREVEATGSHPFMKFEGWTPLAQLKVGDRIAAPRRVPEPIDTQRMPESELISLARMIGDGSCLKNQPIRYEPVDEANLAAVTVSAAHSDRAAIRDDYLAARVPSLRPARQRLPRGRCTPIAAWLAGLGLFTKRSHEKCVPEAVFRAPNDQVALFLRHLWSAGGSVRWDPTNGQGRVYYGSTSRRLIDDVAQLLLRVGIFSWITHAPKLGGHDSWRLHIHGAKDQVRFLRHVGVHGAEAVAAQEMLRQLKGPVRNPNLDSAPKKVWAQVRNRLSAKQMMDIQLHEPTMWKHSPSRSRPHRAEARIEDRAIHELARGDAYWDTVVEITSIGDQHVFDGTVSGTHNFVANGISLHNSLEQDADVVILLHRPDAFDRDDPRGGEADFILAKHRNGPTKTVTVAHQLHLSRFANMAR

[8] = target: T4, Protein RecA (Mycobacterium tuberculosis, UniProt P9WHJ3); test: Fluorescence Cell-Free Homogeneous Dose Retest to Identify Inhibitors of RecA-Intein Splicing Activity. [Related pubchem assays (depositor defined):AID2097, AID2223, AID489010, AID492950]; format: functional
T4 sequence (P9WHJ3 whole entry): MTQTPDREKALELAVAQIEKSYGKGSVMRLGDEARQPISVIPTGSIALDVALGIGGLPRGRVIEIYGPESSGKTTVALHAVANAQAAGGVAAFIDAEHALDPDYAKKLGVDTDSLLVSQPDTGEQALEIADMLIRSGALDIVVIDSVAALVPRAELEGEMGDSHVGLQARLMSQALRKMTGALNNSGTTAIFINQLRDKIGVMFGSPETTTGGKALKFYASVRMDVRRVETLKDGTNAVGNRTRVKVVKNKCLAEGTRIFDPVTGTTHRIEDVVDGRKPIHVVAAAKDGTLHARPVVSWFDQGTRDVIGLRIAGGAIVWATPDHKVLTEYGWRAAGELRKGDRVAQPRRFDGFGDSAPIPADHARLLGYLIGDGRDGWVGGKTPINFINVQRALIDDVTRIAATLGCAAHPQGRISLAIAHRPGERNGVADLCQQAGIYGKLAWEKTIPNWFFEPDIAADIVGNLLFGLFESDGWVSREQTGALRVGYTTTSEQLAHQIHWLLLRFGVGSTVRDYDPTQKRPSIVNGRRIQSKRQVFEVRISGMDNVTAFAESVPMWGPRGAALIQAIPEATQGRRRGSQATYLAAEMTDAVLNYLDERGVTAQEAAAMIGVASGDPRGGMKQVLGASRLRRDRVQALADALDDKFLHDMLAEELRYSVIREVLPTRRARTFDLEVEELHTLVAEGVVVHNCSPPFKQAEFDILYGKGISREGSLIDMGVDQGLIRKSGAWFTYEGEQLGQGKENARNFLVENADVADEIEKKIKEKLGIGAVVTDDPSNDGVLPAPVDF

[9] = test system: Streptococcus sp. 'group A'; test: Streptococcus pyogenes SK(-)GAS viability under kanamycin – luminescence, BacTiterGlo, confirmation, counter-screen for streptokinase expression inhibitor project, dose response (AID 1900); format: functional, organism-based
[10] = test system: Streptococcus; test: GAS UMAA2166 growth inhibition – luminescence, BacTiterGlo, counter-screen for streptokinase expression inhibitor project, dose response (AID 1915); format: functional, organism-based;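 further: potency for reduction of bacterial viability or growth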
[11] = target: T5, Streptokinase A (Streptococcus pyogenes serotype M1, UniProt P10520); test: viability-normalized secreted streptokinase activity reduction – plasminogen activation absorbance, OD405, dose response (AID 1914); format: functional, Streptococcus pyogenes M1 GAS;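 further: secreted streptokinase activity via plasminogen activation per viability signal from cell pellet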
T5 sequence (P10520 whole entry): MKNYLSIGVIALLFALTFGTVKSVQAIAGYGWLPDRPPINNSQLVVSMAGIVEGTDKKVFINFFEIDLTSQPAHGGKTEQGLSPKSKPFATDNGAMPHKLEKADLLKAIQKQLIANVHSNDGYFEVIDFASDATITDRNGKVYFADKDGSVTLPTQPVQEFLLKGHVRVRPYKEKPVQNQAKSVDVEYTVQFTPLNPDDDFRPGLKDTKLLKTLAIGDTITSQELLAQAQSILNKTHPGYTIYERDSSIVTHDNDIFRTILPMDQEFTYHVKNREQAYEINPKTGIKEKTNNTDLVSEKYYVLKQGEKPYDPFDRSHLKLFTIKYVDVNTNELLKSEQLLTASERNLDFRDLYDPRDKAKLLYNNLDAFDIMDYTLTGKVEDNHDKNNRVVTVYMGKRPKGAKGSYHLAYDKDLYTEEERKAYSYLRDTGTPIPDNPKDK

Chain of Cytochrome P450 3A4 (P08684 whole entry): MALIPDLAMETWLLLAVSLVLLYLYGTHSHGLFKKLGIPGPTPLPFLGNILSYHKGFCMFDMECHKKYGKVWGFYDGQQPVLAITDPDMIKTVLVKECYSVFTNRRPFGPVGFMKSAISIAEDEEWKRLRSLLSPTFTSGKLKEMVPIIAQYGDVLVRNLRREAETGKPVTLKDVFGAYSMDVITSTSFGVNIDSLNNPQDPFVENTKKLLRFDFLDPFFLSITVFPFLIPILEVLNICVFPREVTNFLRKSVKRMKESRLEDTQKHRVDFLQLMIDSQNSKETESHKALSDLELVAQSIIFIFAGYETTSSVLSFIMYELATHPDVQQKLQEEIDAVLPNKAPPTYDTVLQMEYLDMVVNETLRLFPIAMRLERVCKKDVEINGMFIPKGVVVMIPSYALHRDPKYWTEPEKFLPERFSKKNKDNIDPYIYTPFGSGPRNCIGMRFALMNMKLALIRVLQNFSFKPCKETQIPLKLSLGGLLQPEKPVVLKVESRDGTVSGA
Chain of Cytochrome P450 2C9 (P11712 whole entry): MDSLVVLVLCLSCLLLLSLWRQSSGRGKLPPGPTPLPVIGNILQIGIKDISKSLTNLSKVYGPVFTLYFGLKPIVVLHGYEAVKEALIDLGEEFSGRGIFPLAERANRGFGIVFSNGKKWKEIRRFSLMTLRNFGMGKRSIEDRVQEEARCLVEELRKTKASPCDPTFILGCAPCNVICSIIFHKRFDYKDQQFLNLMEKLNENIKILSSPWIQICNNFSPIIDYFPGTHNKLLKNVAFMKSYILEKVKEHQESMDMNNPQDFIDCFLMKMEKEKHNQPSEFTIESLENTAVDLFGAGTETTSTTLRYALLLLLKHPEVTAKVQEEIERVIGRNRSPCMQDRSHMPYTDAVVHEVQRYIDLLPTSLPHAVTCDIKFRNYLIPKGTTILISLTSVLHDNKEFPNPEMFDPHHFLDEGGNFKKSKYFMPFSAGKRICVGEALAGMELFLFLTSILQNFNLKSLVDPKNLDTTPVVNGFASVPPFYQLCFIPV
Chain of Cytochrome P450 2C19 (P33261 whole entry): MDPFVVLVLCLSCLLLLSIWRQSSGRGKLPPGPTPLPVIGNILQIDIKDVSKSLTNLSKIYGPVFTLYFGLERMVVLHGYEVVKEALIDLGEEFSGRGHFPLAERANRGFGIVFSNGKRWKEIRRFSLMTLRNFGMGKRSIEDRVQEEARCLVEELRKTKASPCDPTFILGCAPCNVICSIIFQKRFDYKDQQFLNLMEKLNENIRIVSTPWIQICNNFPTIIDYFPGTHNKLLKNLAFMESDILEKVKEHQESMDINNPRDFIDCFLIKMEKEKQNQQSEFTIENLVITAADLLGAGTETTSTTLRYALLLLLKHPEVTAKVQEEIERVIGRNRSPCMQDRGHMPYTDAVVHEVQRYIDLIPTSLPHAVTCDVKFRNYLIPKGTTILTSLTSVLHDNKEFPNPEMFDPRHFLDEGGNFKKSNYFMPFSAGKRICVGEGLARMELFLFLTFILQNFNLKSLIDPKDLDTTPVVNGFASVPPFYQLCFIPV

## O=C(NC(C(=O)c1ccccc1)n1cnccc1=O)c1ccccc1 (configuration not stated)
[1]
  AC50: 14.1 µM (inconclusive)
[2]
  AC50: 8.91 µM (inconclusive)
[3]
  AC50: 2.82 µM (inconclusive)

## Cc1ccc(-c2noc(-c3cc4ccccc4oc3=O)n2)cc1
[1]
  AC50: 3.55 µM (inconclusive)
[2]
  AC50: 6.31 µM (inconclusive)

## Cc1ccc(Cl)cc1N1CCN(C(=O)Cc2c(C(=O)O)[nH]c3ccc(Cl)cc23)CC1
[4]
  EC50: > 53 µM (inactive)
[5]
  IC50: > 47.1 µM (inactive)

## CCCCC/C=C\C[C@H](O)/C=C\c1cccc(C[C@H](O)CCCCO)n1
[1]
  AC50: 6.31 µM (inconclusive)
[2]
  AC50: 20 µM (inconclusive)

## Cc1ncc([N+](=O)[O-])n1CCOC(N)=O [BAMNIDAZOLE]
[4]
  EC50: > 53 µM (inactive)
[5]
  IC50: > 47.1 µM (inactive)

## COc1ccc(C2c3c(-c4ccccc4O)n[nH]c3C(=O)N2Cc2ccco2)cc1 (configuration not stated)
[4]
  EC50: > 53 µM (inactive)
[5]
  IC50: > 47.1 µM (inactive)

## CC1CN(CCCCN2C(=O)c3ccccc3C2=O)CC(C)O1 (configuration not stated)
[6]
  IC50: 125 µM (active)

## COC(=O)c1ccc(CNC(=O)COC(=O)/C=C/c2ccc(O)c(OC)c2)cc1
[6]
  IC50: 44.4 µM (active)

## COc1cc(/C=C/C(=O)OCC(=O)N2CCCc3ccccc32)ccc1O
[6]
  IC50: 36.1 µM (active)

## Cc1nc2ccccc2nc1N/N=C/c1ccc(O)cc1
[6]
  IC50: 29.2 µM (active)

## COc1cc2oc(-c3ccc(O)cc3)cc(=O)c2c(OC)c1O
[6]
  IC50: 18.2 µM (active)

## Cc1cc(=O)n(CCCc2ccccc2)[nH]1
[7]
  AC50: 2.4 µM (active)
[8]
  EC50: 2.23 µM (active)

## CCc1ccc(C2C(C#N)=C(N)C(C#N)(C#N)C3=CCC(C(C)(C)C)CC32)cc1 (configuration not stated)
[9]
  EC50: 4.85 µM (active)
[10]
  EC50: > 150 µM (not active)
[7]
  AC50: > 120 µM (inactive)
[11]
  EC50: 5.84 µM (active)
[8]
  EC50: 3 µM (active)

## O=c1c2ccccc2nc2n1C(CSc1ccc(F)cc1)CN2 (configuration not stated)
[1]
  AC50: 31.6 µM (inconclusive)
[2]
  AC50: 39.8 µM (inconclusive)

From ChEMBL document CHEMBL1201862, “PubChem BioAssay data set” (2004)
